From US20110268789A1, “USE OF PITUITARY ADENYLATE CYCLASE-ACTIVATING POLYPEPTIDE (PACAP) AND PACAP ANALOGS AS ADJUNCTIVE TREATMENTS WITH ANTICANCER AGENTS” (priority 2008, published 2011)
Where two headings read alike, the source gives them in different places.

How the values were obtained:
[1] = tested on: light-chain immunoglobulin-secreting human myeloma cells; test: Vincristine-induced apoptotic cell death of myeloma cells; type: cell-based
Procedure: (§1) The light-chain immunoglobulin-secreting human myeloma cells were cultured in RPMI 1640 medium supplemented with 10% non-inactivated fetal bovine serum and 0.05 mM 2-mercaptoethanol. The effects of PACAP38 on apoptotic cell death was assessed by the quantitative determination of cytoplasmic histone-associated DNA-fragmentation (mono- and oligonucleosomes) after exposure to vincristine for 48 hours. Each value represents the mean plus/minus the standard deviation of four determinations. **p<0.01 and *p<0.05 compared to the vincristine-treated (control) cells.

[2] = tested on: Four-vessel occlusion in the rat; details: cited from earlier work
[3] = tested on: light-chain immunoglobulin-secreting human myeloma cells; test: Carmustine-induced apoptotic cell death of myeloma cells; type: cell-based
Procedure: as §1, with “PACAP38, and [Ala^22]PACAP38” for “PACAP38”, “carmustine” for “vincristine”, “three” for “four”, “carmustine-treated” for “vincristine-treated”

[4] = tested on: HK-2 human kidney cells; test: Doxorubicin-induced apoptotic cell death of human renal proximal tubule epithelial cells; type: cell-based; details: HK-2 cells, peptide added to the medium, FIG. 11
Procedure: The HK-2 human kidney cells were cultured in Keratinocyte-Serum Free Medium supplemented with recombinant epidermal growth factor and bovine pituitary extract. […] Each value represents the mean plus/minus the standard deviation of four determinations in three replicate experiments. **p<0.01 and *p<0.05 compared to the doxorubicin-treated (control) cells.
At the highest dose tested (10^−6 M), all three peptides reduced the apoptotic cell death of these epithelial cells by more than 60%.

[5] = tested on: human erythroleukemia cells; test: Thalidomide-induced apoptotic cell death of erythroleukemia cells; type: cell-based
Procedure: as §1, with “The” for “The light-chain immunoglobulin-secreting”, “myeloid leukemia” for “myeloma”, “serum.” for “serum and 0.05 mM 2-mercaptoethanol.”, “PACAP38, [D-Ser^2]PACAP38 and VIP” for “PACAP38”, “thalidomide” for “vincristine”, “thalidomide-treated” for “vincristine-treated”

[6] = tested on: Middle cerebral artery occlusion (MCAO) in the rat; details: cited from earlier work; for reduction of the infarct volume: 48 hours after start
[7] = tested on: L-132 human lung cells; test: Bleomycin-induced apoptotic cell death of human pulmonary epithelial cells; type: cell-based; details: L-132 cells, peptide added to the medium, FIG. 12
Procedure: The L-132 human lung cells were cultured in Eagle's Minimum Essential Medium supplemented with 10% fetal bovine serum. […] Each value represents the mean plus/minus the standard deviation of four determinations in three replicate experiments. **p<0.01 and *p<0.05 compared to the bleomycin-treated (control) cells.
At the highest dose tested (10^−6 M), all three peptides reduced the apoptotic cell death of these epithelial cells by more than 60%. […] Therefore, pre- and/or post-treatment of subjects undergoing bleomycin-based cancer chemotherapy with therapeutic doses of PACAP38 and/or PACAP analogs should result in a higher maximal tolerable dose of bleomycin, and an increased frequency of partial clinical responses and/or an increased number of complete remissions.

[8] = tested on: PC-12 rat pheochromocytoma cells; test: Cisplatin-induced apoptotic cell death of pheochromocytoma cells; type: cell-based; details: PC-12 cells
Procedure: The PC-12 rat pheochromocytoma cells were cultured in F-12K medium supplemented with 15% horse serum and 2.5% fetal bovine serum. The dose-dependent inhibitory effects of PACAP38 and the PACAP38 analogs on apoptotic cell death were assessed by the quantitative determination of cytoplasmic histone-associated DNA-fragmentation (mono- and oligonucleosomes) after exposure to cisplatin for 24 hours. Each value represents the mean plus/minus the standard error of four determinations. **p<0.01 and *p<0.05 compared to the cisplatin-treated (control) cells.

[9] = tested on: light-chain immunoglobulin-secreting human myeloma cells; test: Thalidomide-induced apoptotic cell death of myeloma cells; type: cell-based
Procedure: as §1, with “thalidomide” for “vincristine”, “thalidomide-treated” for “vincristine-treated”

[10] = tested on: light-chain immunoglobulin-secreting human myeloma cells; test: Doxorubicin-induced apoptotic cell death of myeloma cells; type: cell-based
Procedure: as §1, with “PACAP38, and [Ala^16,17,D-Lys^38]PACAP38” for “PACAP38”, “doxorubicin” for “vincristine”, “three” for “four”, “doxorubicin-treated” for “vincristine-treated”
At the lowest dose tested (10^−8 M), both peptides reduced the doxorubicin-induced apoptotic cell death of these malignant plasma cells.

PACAP38
lowest dose with significant enhancement of vincristine-induced apoptotic cell death [1]: 10^−9 M | effect on vincristine-induced apoptotic cell death ([1]; vincristine 48 hours, FIG. 18): dose-dependent enhancement | reduction in the number of CA1 pyramidal cells at day 7 post-occlusion ([2]; 16 pmol/hr or 160 pmol/hr i.v. for 6 days beginning 24 hours after occlusion): significantly reversed | side-effects during 6 days continuous infusion ([2]; 16 pmol/hr or 160 pmol/hr i.v.): no obvious side-effects | relative potency as enhancer of carmustine-induced apoptotic cell death [3]: more potent than [Ala^22]PACAP38 | effect on carmustine-induced apoptotic cell death ([3]; carmustine 48 hours, FIG. 17): enhancement | effect on carmustine-induced apoptotic cell death ([3]; highest dose tested (10^−6 M)): significantly enhanced | reduction in doxorubicin-induced apoptotic cell death [4]: significant dose-dependent reduction | lowest dose with significant enhancement of thalidomide-induced apoptotic cell death [5]: 10^−8 M | effect on thalidomide-induced apoptotic cell death ([5]; thalidomide 48 hours, FIG. 20): dose-dependent enhancement | reduction of the infarct volume ([6]; 160 pmol/hr i.v. infusion beginning 4 hours after start of MCAO): approximately 51% | reduction of the infarct volume ([6]; 160 pmol/hr i.v. infusion beginning 8 hours after start of MCAO): ~22% | reduction of the infarct volume ([6]; 160 pmol/hr i.v. infusion beginning 12 hours after start of MCAO): ~12% | effect of continuous intravenous infusion on plasma glucose levels, blood gases, blood pressure ([6]; 160 pmol/hr i.v.): did not appear to alter plasma glucose levels, blood gases or blood pressure | reduction in bleomycin-induced apoptotic cell death [7]: significant dose-dependent reduction | reduction in cisplatin-induced apoptotic cell death ([8]; cisplatin 24 hours, FIG. 13): dose-dependent reduction | reduction of cisplatin-induced apoptotic cell death ([8]; highest dose tested (10^−6 M)): significantly reduced | lowest dose with significant enhancement of thalidomide-induced apoptotic cell death [9]: 10^−8 M | effect on thalidomide-induced apoptotic cell death ([9]; thalidomide 48 hours, FIG. 19): dose-dependent enhancement | effect on doxorubicin-induced apoptotic cell death (dose-response) ([10]; doxorubicin 48 hours, FIG. 16): biphasic dose-response effect | effect on doxorubicin-induced apoptotic cell death ([10]; highest dose tested (10^−6 M)): significantly enhanced | effect on doxorubicin-induced apoptotic cell death ([10]; lowest dose tested (10^−8 M)): reduced
